For series [1] the following is noted: from Bodor, Gabanyi, Wang, JACS 111, 3783 (1989); cited from earlier work.
In series [2] the test system is Pseudomonas aeruginosa (ATCC 15442) biofilms. The experiment in a line: MBEC test, 24-hour biofilm, one hour biocide challenge.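 As to all read-outs here: Peg-grown biofilms exposed to biocide, then regrowth in broth 18 h at 35 °C, turbidity by absorbance at 650 nm, above 0.100 counted as growth.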 The series is classed as cell-based. The settings on record: for minimum biofilm eradication concentration (MBEC) / MBC: Pseudomonas aeruginosa, ATCC15442, 1 h; for minimum biofilm eradication concentration (MBEC) / MBEC, avg. / MBEC, ppm (first of duplicate runs) / MBEC, ppm (second of duplicate runs) / biofilm deactivation at 200 ppm (regrowth optical density measurements): 24-hour biofilm, 1 hour contact.
From the text: The MBEC technique consists of growing identical 24-hour biofilms on 96 pegs arrayed in 12 rows and 8 columns. The biofilms then are challenged with decreasing concentrations of selected antibiotics and/or biocides. After a certain challenge time (generally one hour), the biofilms are placed in 96 individual wells of growth media and ultra-sonicated to deactivate any surviving organisms. After culturing overnight, the wells are checked for turbidity. Clear, transparent wells indicate complete deactivation of the biofilm. Conversely, turbidity (“growth”) indicates lack of complete deactivation of the biofilm.
The minimum biofilm deactivation concentration (MBEC) is defined as the minimum concentration of an agent that completely deactivates biofilm bacteria. […] Unless otherwise indicated, the biofilms used in the examples below consisted of a pure culture of Pseudomonas aeruginosa (ATCC 15442).
Pseudomonas aeruginosa (ATCC 15442) biofilms were prepared on the 96 pegs of the MBEC plate by aerobic incubation in simple salts medium with 0.1% glucose (24 hours, 35° C.). The pegs were rinsed in synthetic water (SW) and then challenged by the biocide for one hour. Following the biocide challenge, the pegs were rinsed twice with SW and then sonicated into Mueller-Hinton broth (225 μL per well). The broth was then incubated for 18 hours at 35° C.

In series [3] the test system is 7-day biofilm formed using P. aeruginosa. The series can be described thus: MBEC test, 7-day biofilm, one hour biocide challenge. The series is classed as cell-based, Pseudomonas aeruginosa. The note with it: 1 hour contact; for MBEC, avg., Example 4 / MBEC, ppm (first of duplicate runs), Example 4 / MBEC, ppm (second of duplicate runs), Example 4: Example 4, ppm oxidant (as Cl2) or ppm active. An excerpt: The MBEC technique consists of growing identical 24-hour biofilms on 96 pegs arrayed in 12 rows and 8 columns. The biofilms then are challenged with decreasing concentrations of selected antibiotics and/or biocides. After a certain challenge time (generally one hour), the biofilms are placed in 96 individual wells of growth media and ultra-sonicated to […] any surviving organisms. After culturing overnight, the wells are checked for turbidity. Clear, transparent wells indicate complete deactivation of the biofilm. Conversely, turbidity (“growth”) indicates lack of complete deactivation of the biofilm.
After the 18 hour incubation period, the recovery wells were checked for turbidity. Clear, transparent wells indicated complete deactivation of the biofilm. Conversely, turbidity indicated the lack of complete deactivation of the biofilm. The minimum biofilm deactivation concentration (MBEC) is defined as the minimum concentration of agent which results in complete deactivation of the biofilm. MBEC endpoints were unambiguously determined by absorbance at 650 nm. using UV visible spectroscopy. An absorbance >0.100 was considered a positive indication of growth.
Pseudomonas aeruginosa (ATCC 15442) biofilms were prepared as described in Example I. The 7-day biofilms were prepared by a modification of the above procedure. Each day, spent media was replaced with fresh media and inocula.
Older biofilms offer increased resistance to biocides. Studies were extended to 7-day biofilms formed using P. aeruginosa. The procedure used to form the 7-day biofilm was the same as in Example 1, except that each day, spent media was replaced with fresh media and inocula. This biofilm was then challenged with oxidizing and non-oxidizing biocides.
Another 7-day biofilm was prepared from P. aeruginosa, as in EXAMPLE 3. This biofilm was then challenged with several common oxidizing and non-oxidizing biocides.

[4] abbreviates: average of duplicate runs, blends: total amount of components (1:1 ratio), read-out: MBEC, avg.
[5] abbreviates: blends: total amount of components (1:1 ratio), read-out: MBEC, ppm (first of duplicate runs).
Setting [6] is: blends: total amount of components (1:1 ratio), read-out: MBEC, ppm (second of duplicate runs).
The mark [7] stands for this setting: blends: total biocide, read-out: MBEC.
The mark [8] stands for this setting: average of duplicate runs, blends: total amount of components (1:1 ratio).
The mark [9] stands for this setting: blends: total amount of components (1:1 ratio).
[10] abbreviates: Example 3, ppm oxidant (as Cl2) or ppm active.
The mark [11] stands for this setting: read-out: MBEC, avg., 24-hour biofilm, 1 hour contact, average of duplicate runs, blends: total amount of components (1:1 ratio).
Where [12] appears, read: read-out: MBEC, ppm (second of duplicate runs), 24-hour biofilm, 1 hour contact, blends: total amount of components (1:1 ratio).
Where [13] appears, read: read-out: MBEC, ppm (first of duplicate runs), 24-hour biofilm, 1 hour contact, blends: total amount of components (1:1 ratio).

Structures are written as SMILES. Read-outs that look alike come from different tables or passages of the source.

The values below come from US6379563B1, “Alkylamines as biofilm deactivation agents” (Albemarle Corporation, priority 2000, dated 2002).

Turning to `CCCCN` [1-Butylamine], the logKow experimental in series [1] is on record as 0.87.

`CCCCCCCCCCN` [1-Decylamine]: the minimum biofilm eradication concentration (MBEC) in series [2] (setting [4]), in series [2] (setting [5]), in series [2] (setting [6]) and in series [2] (setting [7]) was 200 µg/mL throughout.

With `CCCCCCCCCCCCN` [1-Dodecylamine], the minimum biofilm eradication concentration (MBEC) in series [2] (setting [4]) is 25 µg/mL; in series [2] (setting [5]), 25 µg/mL; in series [2] (setting [6]), 25 µg/mL; in series [2] (setting [7]), about 38 µg/mL. Besides, in series [3], the “MBEC on 7-day biofilm” value was 75 ppm. In addition, the “MBEC, avg., Example 4” value in series [3] is 75 ppm. The “MBEC, ppm (first of duplicate runs), Example 4” value in series [3] is on record as 100 ppm. The “MBEC, ppm (second of duplicate runs), Example 4” value in series [3] is 50 ppm.

Regarding `CCCCCCCCCCCCCCCCN` [1-Hexadecylamine], the minimum biofilm eradication concentration (MBEC) in series [2] (setting [4]), in series [2] (setting [5]), in series [2] (setting [6]) and in series [2] (setting [7]) was 200 µg/mL each time.

For `CCCCCCN` [1-Hexylamine], the minimum biofilm eradication concentration (MBEC) in series [2] (setting [4]), in series [2] (setting [5]) and in series [2] (setting [6]) was 1600 µg/mL each time.

For the molecule `CCCCCCCCN` [1-Octylamine], the minimum biofilm eradication concentration (MBEC) in series [2] (setting [4]), in series [2] (setting [5]), in series [2] (setting [6]) and in series [2] (setting [7]) was 400 µg/mL throughout.

`CCCCCCCCCCCCCCN` [1-Tetradecylamine]: the minimum biofilm eradication concentration (MBEC) in series [2] (setting [4]), in series [2] (setting [5]), in series [2] (setting [6]) and in series [2] (setting [7]) was 25 µg/mL in each case.

For `CCCCN(C)CCCC` [CH3(C4H9)2N], the “MBEC, avg.” value in series [2] (setting [8]) is listed as over 800 ppm. For the same molecule, in series [2] (setting [9]), the “MBEC, ppm (first of duplicate runs)” value is >800, >800 ppm and the “MBEC, ppm (second of duplicate runs)” value is >800, >800 ppm.

For the molecule `CCCCCCN(C)CCCCCC` [CH3(C6H13)2N], in series [2] (setting [8]), the “MBEC, avg.” value is over 800 ppm. Besides, in series [2] (setting [9]), the “MBEC, ppm (first of duplicate runs)” value is recorded as >800, >800 ppm and the “MBEC, ppm (second of duplicate runs)” value was >800, >800 ppm.

Take `CCCCCCCCN(C)CCCCCCCC` [CH3(C8H17)2N, Dioctylmethylamine]: the minimum biofilm eradication concentration (MBEC) in series [2] (setting [4]), in series [2] (setting [5]), in series [2] (setting [6]) and in series [2] (setting [7]) was 800 µg/mL throughout.

`O=c1n(Cl)c(=O)n(Cl)c(=O)n1Cl` [Cl2 (from Trichlor), trichloroisocyanuric acid]: in series [3], the “MBEC on 7-day biofilm” value is 20 ppm; the “MBEC, avg., Example 4” value was determined as 20 ppm; the “MBEC, ppm (first of duplicate runs), Example 4” value is recorded as 20, 20 ppm; the “MBEC, ppm (second of duplicate runs), Example 4” value is 20, 20 ppm. For the same molecule, in series [3] (setting [10]), the “MBEC, ppm (first of duplicate runs), Example 3” value amounted to 5 ppm and the “MBEC, ppm (second of duplicate runs), Example 3” value was over 10 ppm.

In the case of `CCCCCCCCCCN(C)CCCCCCCCCC` [DAMA 1010 Amine, didecylmethylamine], the minimum biofilm eradication concentration (MBEC) in series [2] (setting [4]), in series [2] (setting [5]), in series [2] (setting [6]) and in series [2] (setting [7]) was 400 µg/mL each time.

In the case of `CCCCCCCCCC[N+](C)(C)CCCCCCCCCC.[Cl-]` [DAQ 1010, Didecyldimethyl ammonium chloride], in series [2] (read-out: MBEC, 24-hour biofilm, 1 hour contact, blends: total biocide), the MBC is about 38 µg/mL. In series [2] (setting [11]), the MBC amounted to 50 µg/mL. Further, the MBC in series [2] (setting [12]) was determined as 25 µg/mL. Further, in series [3], the “MBEC on 7-day biofilm” value was 75 ppm; the “MBEC, avg., Example 4” value came to 75 ppm; the “MBEC, ppm (first of duplicate runs), Example 4” value is reported as 100 ppm; the “MBEC, ppm (second of duplicate runs), Example 4” value is 50 ppm.

In the case of `CCCCNCCCC` [N,N-Dibutylamine], the minimum biofilm eradication concentration (MBEC) in series [2] (setting [4]), in series [2] (setting [5]) and in series [2] (setting [6]) was over 1600 µg/mL in each case. Also, in series [1], the logKow experimental is recorded as 2.76.

With `CCCCN(C)C` [N,N-Dimethylbutylamine], the logKow experimental in series [1] is 1.70.

On to `CCCCCCCCCCN(C)C` [N,N-Dimethyldecylamine], for which the minimum biofilm eradication concentration (MBEC) in series [2] (setting [4]), in series [2] (setting [5]) and in series [2] (setting [6]) was over 400 µg/mL in each case.

For the molecule `CCCCCCCCCCCCN(C)C` [N,N-Dimethyldodecylamine], the MBC in series [2] (setting [11]), in series [2] (setting [13]) and in series [2] (setting [12]) was over 200 µg/mL each time.

For `CCCCCCCCCCCCCCCCN(C)C` [N,N-Dimethylhexadecylamine], the “biofilm deactivation at 200 ppm (regrowth optical density measurements)” value in series [2] is “evidence of biofilm deactivation”. Besides, the minimum biofilm eradication concentration (MBEC) is over 200 µg/mL in series [2] (setting [4]), over 200 µg/mL in series [2] (setting [5]), over 200 µg/mL in series [2] (setting [6]) and 400 to 800 µg/mL in series [2] (setting [7]).

With `CCCCCCCCN(C)C` [N,N-Dimethyloctylamine], the minimum biofilm eradication concentration (MBEC) in series [2] (setting [4]), in series [2] (setting [5]) and in series [2] (setting [6]) was over 800 µg/mL throughout.

For the molecule `CCCCCCCCCCCCCCN(C)C` [N,N-Dimethyltetradecylamine], in series [2], the “biofilm deactivation at 200 ppm (regrowth optical density measurements)” value is “evidence of biofilm deactivation”. Further, the minimum biofilm eradication concentration (MBEC) is over 200 µg/mL in series [2] (setting [4]), over 200 µg/mL in series [2] (setting [5]), over 200 µg/mL in series [2] (setting [6]) and 400 to 800 µg/mL in series [2] (setting [7]).

Regarding `CCCCCCCCNCCCCCCCC` [N,N-Dioctylamine], the minimum biofilm eradication concentration (MBEC) in series [2] (setting [4]), in series [2] (setting [5]), in series [2] (setting [6]) and in series [2] (setting [7]) was 1600 µg/mL in each case.

As to `OC[P+](CO)(CO)CO.[Cl-]` [THPC, tetrakis(hydroxymethyl)phosphonium chloride, reference compound], the MBC in series [2] (setting [11]), in series [2] (setting [13]) and in series [2] (setting [12]) was 100 µg/mL throughout.

Consider `O=CCCCC=O` [glutaraldehyde, reference compound], for which the minimum biofilm eradication concentration (MBEC) is 50 µg/mL in series [2] (setting [4]), 50 µg/mL in series [2] (setting [5]), 50 µg/mL in series [2] (setting [6]) and 50 to 100 µg/mL in series [2] (setting [7]). Moreover, the “MBEC on 7-day biofilm” value in series [3] is recorded as “about 200 ppm”. Moreover, the “MBEC, avg., Example 3” value in series [3] (setting [10]) is “˜200 ppm”. Besides, the “MBEC, ppm (first of duplicate runs), Example 3” value in series [3] (setting [10]) came out at 100 ppm. Further, the “MBEC, ppm (second of duplicate runs), Example 3” value in series [3] (setting [10]) was over 200 ppm.
